PubChem BioAssay AID504646 (Southern Research Specialized Biocontainment Screening …, 2011)
The source made the active and inactive calls. How the calls were made is not given here.

Experiment: M. tuberculosis growth inhibition in 7H9, dose response, 7H9 media, purified and synthesized samples, set 3 (AID 504646)
Details: Mycobacterium tuberculosis growth in 7H9 media; at 25 µM (top of the series)

| Compound | growth inhibition |
| --- | --- |
| Nc1cc(=O)[nH]c(SCC(=O)Nc2ccc(Oc3ccccc3)cc2)n1 | -0.36% (inactive) |
| CCOc1ccc2nc(NC(=O)C(CC)Sc3nc(C)cc(=O)[nH]3)sc2c1 (configuration not stated) | 2.52% (inactive) |
| CCC(Sc1nc(=O)cc(N)n1-c1ccccc1)C(=O)Nc1cc(C)on1 (configuration not stated) | -3.83% (inactive) |
| Cc1c[nH]c(=S)[nH]c1=O | -6.2% (inactive) |
| Cc1cc(=O)[nH]c(=S)[nH]1 | -1.28% (inactive) |
| COc1ccc(NC(=O)CSc2nc(NS(=O)(=O)c3ccc(C)cc3)cc(=O)[nH]2)cc1 | 1.44% (inactive) |
| O=c1[nH]c(=S)[nH]c2ccccc12 | -8.06% (inactive) |
| Cc1[nH]c2ccccc2c1C(=O)COC(=O)c1ccc([N+](=O)[O-])s1 | -5.99% (inactive) |
| Cc1[nH]c(=S)[nH]c(=O)c1C | -8.11% (inactive) |
| CCc1cc(=O)[nH]c(SCC(=O)Nc2ccc3c(c2)OCCO3)n1 | 3.59% (inactive) |
| C=CCn1c(SCC(=O)Nc2cccc3ccccc23)nc(O)c(CC)c1=O | 26.9% (inactive) |
| Cc1cccc(N2CCN(C(=O)c3ccc(CNc4c(N5CCC(C)CC5)c(=O)c4=O)cc3)CC2C)c1 (configuration not stated) | -1.5% (inactive) |
| CCOc1ccc(NC(=O)c2ccc(CNc3c(N4CCCC4)c(=O)c3=O)cc2)cc1 | 0.32% (inactive) |
| Oc1ccccc1/C=N/Nc1ccnc(SCc2ccccc2)n1 | 2.73% (inactive) |
| COC(=O)C(Nc1nc(SCC(=O)NC2CCCCC2)nc2ccccc12)c1ccccc1 (configuration not stated) | -0.22% (inactive) |
| O=C(CSc1ccccn1)NC1CCCCC1 | -4.91% (inactive) |
| CC1CCN(C(=O)CSc2nc3ccccc3c(=O)[nH]2)CC1 | 2.14% (inactive) |
| CC(NC(=O)CSc1nc2ccccc2c(=O)[nH]1)c1ccccc1 (configuration not stated) | -9.84% (inactive) |
| CCOC(=O)N1CCC(Nc2c(Nc3cccc(CC)c3)c(=O)c2=O)CC1 | 17.3% (inactive) |
| Cc1nc(SCC(N)=O)[nH]c(=O)c1C | -2.97% (inactive) |
| CCSc1nc2ccccc2c(=O)[nH]1 | -4.76% (inactive) |
| CCSc1nc(C)c(C)c(=O)[nH]1 | 1.07% (inactive) |
